According to US7947275B2 (Signe Biopharma, Inc., priority 2000, dated 2011):
Values joined by “and” are separate entries in the source; they are usually repeats but may differ in a detail not shown here. Equal entries are not always repeated. Structures can show the parent of a compound that is named as a salt. Where two headings read alike, the source gives them in different places.

Legend:
[1] = tested on: LNCaP cells; test: Cell growth assay, LNCaP human prostatic carcinoma cells; assay type: cell-based; details: for reversal of the inhibition caused by CDE-horse serum: D-MEM/F-12 with CDE-horse serum, 10 nM steroid
Method: Specific modifications of the customary cell growth assays were required for assays done under iron-restricted conditions. […] Serum-free components were added to “low-Fe” D-MEM/F-12 at double the concentrations needed (2X) or to “standard” D-MEM/F-12 at (2X) as the experiments dictated. Each assay dish received 1.0 mL of this solution. Next, the cells to be used in the assays were washed three times in either “low-Fe” medium or “standard” medium depending upon the experimental protocol.

[2] = tested on: H301 cells; test: Cell growth assay, H301 kidney tumor cells; details: 50% (v/v) CDE-horse serum
From the text: (§1) General Cell Culture—Growth Assay Methods.
(§2) General Cell Culture—Harvest and Counting Cells.
(§3) General Cell Culture—Quantification of Growth.

[3] = tested on: androgen receptors of MTW9/PL2 cells
[4] = read-out: Kd of specific binding of ^3H-DHT, Scatchard analysis
[5] = molecular target: human SHBG (Homo sapiens, UniProt P04278); details: 37° C.; cited from earlier work
[6] = tested on: MTW9/PL2 cells; test: Cell growth assay, MTW9/PL2 rat mammary tumor cells; details: for concentration causing significant (p<0.05) growth / concentration for optimum growth: 50% (v/v) CDE-horse serum
From the text: as §1, §2, §3

[7] = tested on: CA-PS-Pool II from rat serum; test: Scatchard analysis of labeled steroid binding to the SHBG-like pools from rat serum; details: 3H-labeled steroid
[8] = read-out: Kd of specific binding of ^3H-DHT
[9] = tested on: CA-PS-Pool II; test: Scatchard analysis of labeled steroid binding to CA-PS-pool II; set-up: species or system horse; details: 3H-labeled steroid, 34° C.
[10] = tested on: T47D cells; test: Cell growth assay, T47D human breast cancer cells; details: for growth effect of steroid hormone, result in words: 50% (v/v) CDE horse serum, 14 days
From the text: as §1, §2, §3

[11] = molecular target: T1, CA-PS-Pool I (predominantly CBG) (Equus caballus, UniProt F7DRS2); test: Scatchard analysis of labeled steroid binding to CA-PS-pool I; set-up: species or system horse
T1 sequence (F7DRS2 23-406): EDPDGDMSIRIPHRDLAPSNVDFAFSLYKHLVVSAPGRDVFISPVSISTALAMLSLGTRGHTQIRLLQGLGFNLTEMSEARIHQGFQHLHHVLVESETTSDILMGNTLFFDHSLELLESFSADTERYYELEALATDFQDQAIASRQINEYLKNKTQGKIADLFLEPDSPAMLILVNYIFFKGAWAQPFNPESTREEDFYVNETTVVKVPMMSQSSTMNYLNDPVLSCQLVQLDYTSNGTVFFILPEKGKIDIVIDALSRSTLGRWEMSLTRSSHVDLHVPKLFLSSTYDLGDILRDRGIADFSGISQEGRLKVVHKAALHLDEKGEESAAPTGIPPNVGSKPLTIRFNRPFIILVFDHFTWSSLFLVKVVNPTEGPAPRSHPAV

[12] = tested on: GH4C1 cells; test: Cell growth assay, GH4C1 rat pituitary tumor cells; details: 50% CDE-horse serum
From the text: as §1, §2, §3

[13] = tested on: MCF-7A cells; test: Cell growth assay, MCF-7A human breast cancer cells; details: DDM-2MF with 10 μg/mL apotransferrin in place of deferoxamine
From the text: as §1, §2, §3

[14] = tested on: DU145 cells; test: Cell growth assay, DU145 human prostate cancer cells; details: CAPM, 10 μM Fe (III)
From the text: as §1, §2, §3

[15] = tested on: ALVA-41 cells; test: Cell growth assay, ALVA-41 human prostate cancer cells; details: results not shown
[16] = tested on: PC3 cells; test: Cell growth assay, PC3 human prostate cancer cells; details: CAPM, 10 μM Fe (III)
From the text: as §1, §2, §3

[17] = molecular target: T2, estrogen receptors of MTW9/PL2 cells (Rattus norvegicus, UniProt P06211); test: ^3H-E2 binding to MTW9/PL2 cells; details: 5 nM ^3H-E2, 37° C., 100-fold molar excess of unlabeled steroid
T2 construct: endogenous in cells; host or cells: MTW9/PL2 rat mammary tumor cells (whole cells; some values from extracts of the parental MTW9/PL line)

[18] = tested on: cortisol receptors of MTW9/PL2 cells; test: ^3H-cortisol binding to MTW9/PL2 cells; details: ≦20 nM ^3H-cortisol
[19] = molecular target: human CBG (Homo sapiens, UniProt P08185); details: 23° C.; cited from earlier work
[20] = molecular target: progesterone receptors in MTW9/PL2 cells (Rattus norvegicus, UniProt Q63449); test: ^3H-progesterone binding to MTW9/PL2 cells
[21] = tested on: progesterone receptors in MTW9/PL2 cells; test: ^3H-progesterone binding to MTW9/PL2 cells; set-up: species or system rat; details: 37° C.
[22] = tested on: MCF-7A, MCF-7K, T47D and ZR-75-1 cells; test: Growth factors as substitutes for E2 with human breast cancer cells in CDE-horse serum; assay type: cell-based; details: EGF, TGFα growth saturating; IGF-I 1.0 μg/mL; IGF-II up to 500 ng/mL; insulin 10 ng/mL to 10 μg/mL
[23] = tested on: MCF-7A, T47D, ZR-75-1, LNCaP and GH4C1 cells; test: TGFβ1 at 50 ng/mL ± E2 with other ER^+ cell lines; assay type: cell-based
[24] = tested on: MCF-7K cells; test: Cell growth assay, MCF-7K human breast cancer cells
From the text: as §1, §2, §3

[25] = read-out: CA-PS-Pool I Kd; 3H-labeled steroid, 34° C.

T2 sequence (P06211 whole entry): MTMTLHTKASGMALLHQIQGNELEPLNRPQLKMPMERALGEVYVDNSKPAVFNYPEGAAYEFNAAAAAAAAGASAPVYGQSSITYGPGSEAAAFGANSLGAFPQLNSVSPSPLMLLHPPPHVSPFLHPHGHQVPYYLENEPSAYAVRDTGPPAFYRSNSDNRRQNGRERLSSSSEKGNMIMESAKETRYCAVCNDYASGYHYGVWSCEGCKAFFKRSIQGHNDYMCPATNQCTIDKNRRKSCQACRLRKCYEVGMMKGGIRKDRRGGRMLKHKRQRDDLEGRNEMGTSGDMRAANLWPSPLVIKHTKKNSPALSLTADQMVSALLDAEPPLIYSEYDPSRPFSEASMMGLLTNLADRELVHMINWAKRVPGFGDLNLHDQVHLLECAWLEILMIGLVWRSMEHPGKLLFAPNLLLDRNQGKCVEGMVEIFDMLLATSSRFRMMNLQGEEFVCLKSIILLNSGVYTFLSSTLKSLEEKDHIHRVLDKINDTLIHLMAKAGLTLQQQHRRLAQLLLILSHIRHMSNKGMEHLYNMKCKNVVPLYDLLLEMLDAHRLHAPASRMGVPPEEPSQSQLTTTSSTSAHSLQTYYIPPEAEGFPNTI
Sequence of human CBG (P08185 23-405): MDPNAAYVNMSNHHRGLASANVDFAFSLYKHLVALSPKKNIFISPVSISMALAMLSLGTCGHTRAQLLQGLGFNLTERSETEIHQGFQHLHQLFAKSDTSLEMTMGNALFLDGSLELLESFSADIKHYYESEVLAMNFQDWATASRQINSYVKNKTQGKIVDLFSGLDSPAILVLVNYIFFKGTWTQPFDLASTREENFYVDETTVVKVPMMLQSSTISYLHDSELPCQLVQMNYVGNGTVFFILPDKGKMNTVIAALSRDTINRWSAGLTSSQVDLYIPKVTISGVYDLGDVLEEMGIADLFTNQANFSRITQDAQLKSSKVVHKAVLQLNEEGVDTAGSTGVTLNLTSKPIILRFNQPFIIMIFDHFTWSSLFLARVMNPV
Sequence of human SHBG (P04278 30-402): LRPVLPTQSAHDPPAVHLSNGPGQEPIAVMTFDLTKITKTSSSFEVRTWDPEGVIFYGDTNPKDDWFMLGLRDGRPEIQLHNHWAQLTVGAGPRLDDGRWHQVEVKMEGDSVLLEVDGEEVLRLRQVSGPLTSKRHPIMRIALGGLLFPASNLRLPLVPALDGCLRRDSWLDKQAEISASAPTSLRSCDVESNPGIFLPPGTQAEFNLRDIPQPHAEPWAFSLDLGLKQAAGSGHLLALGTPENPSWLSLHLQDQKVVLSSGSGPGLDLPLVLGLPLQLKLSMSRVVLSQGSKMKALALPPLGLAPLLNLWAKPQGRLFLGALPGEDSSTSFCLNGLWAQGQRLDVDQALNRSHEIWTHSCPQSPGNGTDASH
Sequence of progesterone receptors in MTW9/PL2 cells (Rattus norvegicus, UniProt Q63449) (Q63449 669-923 limits assumed): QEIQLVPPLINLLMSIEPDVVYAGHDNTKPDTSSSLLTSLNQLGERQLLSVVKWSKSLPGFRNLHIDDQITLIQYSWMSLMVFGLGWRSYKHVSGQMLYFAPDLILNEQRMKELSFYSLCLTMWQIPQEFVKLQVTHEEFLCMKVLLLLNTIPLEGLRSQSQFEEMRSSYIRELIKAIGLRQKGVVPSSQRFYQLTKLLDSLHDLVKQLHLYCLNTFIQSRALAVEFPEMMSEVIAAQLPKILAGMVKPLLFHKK

Compound: CC/C(=C(/CC)c1ccc(O)cc1)c1ccc(O)cc1 [DES, Diethylstilbestrol]
- reversal of the inhibition caused by CDE-horse serum [1]: entirely ineffective

Compound: C[C@]12CCC(=O)C[C@@H]1CC[C@@H]1[C@@H]2CC[C@]2(C)[C@@H](O)CC[C@@H]12 [DHT, Dihydrotestosterone]
- growth effect of steroid hormone, result in words [2]: inactive
- specific saturable binding sites for androgens [3]: did not reveal saturable specific binding sites
- concentration causing significant (p<0.05) growth ([1]; D-MEM/F-12 with 50% (v/v) CDE horse serum): 1 pM
- reversal of the inhibition caused by CDE-horse serum [1]: effectively reversed the inhibition
- androgenic effect (difference between presence and absence of DHT) ([1]; serum-free CAPM ± 10 nM DHT): less than one
- Kd [4]: 0.001 to 0.005 µM
- Ka of purified human SHBG [5]: 9.9e+08 M⁻¹
- concentration causing significant (p<0.05) growth [6]: ≥ 10 nM
- CA-PS-Pool II Ka [7]: 4.1e+07 M⁻¹
- Kd [7]: 0.024 µM
- Kd [8]: 0.015 to 0.04 µM
- CA-PS-Pool II Ka [9]: 6.99e+07 M⁻¹
- Kd [9]: 0.0143 µM
- CA-PS-Pool II Ka ([9]; listed as 3H-DHT): 5.88e+07 M⁻¹
- growth effect of steroid hormone, result in words [10]: promoted growth but only at supraphysiological concentrations
- CA-PS-Pool I Ka ([11]; 3H-labeled steroid, 34° C.): 164000 M⁻¹
- Kd [11, 25]: 6.05 µM

Compound: C[C@]12CC[C@@H]3c4ccc(O)cc4CC[C@H]3[C@@H]1CCC2=O [E1, Estrone]
- concentration required to achieve significant (p<0.05) growth [2]: 100 pM
- concentration for optimum growth [6]: 1 nM
- concentration required for optimum growth [12]: 10 nM
- lowest concentration that gave significant (p<0.05) growth [12]: 1 pM

Compound: C[C@]12CC[C@@H]3c4ccc(O)cc4CC[C@H]3[C@@H]1C[C@@H](O)[C@@H]2O [E3, Estriol]
- concentration for optimum growth [6]: 10 nM
- growth effect of steroid hormone, result in words [12]: substantially less effective

Compound: [Fe+3] [Fe (III)]
- concentration completely inhibitory ([13]; ± E2, 10 days): 10 µM
- IC50 ([13]; read-out: EI50, 10 days): 5 to 7 µM
- IC50 ([1]; CAPM with apotransferrin (500 nM) substituted for deferoxamine, 12-day assay, read-out: EI50 (the source's name)): 5 µM
- concentration arresting growth to seed density levels ([1]; CAPM with apotransferrin (500 nM) substituted for deferoxamine, 12-day assay, second experiment in CAPM): 10 µM and 8 to 10 µM
- concentration giving complete inhibition ([10]; DDM-2MF with 10 μg/mL apotransferrin instead of deferoxamine, 10 days, ± E2): 2 µM
- IC50 ([10]; read-out: EI50, DDM-2MF with 10 μg/mL apotransferrin instead of deferoxamine, 10 days): 1 µM
- reduction in cell number [14]: 30%
- iron sensitivity of growth [15]: not iron sensitive
- reduction in cell number [16]: 10%

Compound: C[C@]12CC[C@H]3[C@@H](CCC4=CC(=O)CC[C@@]43C)[C@@H]1CC[C@@H]2O [T, Testosterone]
- growth effect of steroid hormone, result in words [2]: inactive
- reduction of ^3H-E2 total binding by unlabeled steroid [17]: did not displace ^3H-E2 total binding significantly
- growth effect of steroid hormone, result in words [10]: promoted growth but only at supraphysiological concentrations
- growth effect of steroid hormone, result in words [12]: ineffective

Compound: C[C@]12CCC(=O)C=C1CC[C@@H]1[C@@H]2[C@@H](O)C[C@@]2(C)[C@H]1CC[C@]2(O)C(=O)CO [cortisol, Hydrocortisone/Cortisol]
- growth effect of steroid hormone, result in words [2]: inactive
- concentration causing significant (p<0.05) growth [6]: > 10000 nM
- CA-PS-Pool II Ka [7]: 180000 M⁻¹
- Kd [7]: 5.7 µM
- CA-PS-Pool II Ka [9]: 530000 M⁻¹
- Kd [9]: 1.89 µM
- growth effect of steroid hormone, result in words [10]: completely ineffective
- specific saturable receptors for cortisol [18]: did not identify specific saturable receptors
- growth effect of steroid hormone, result in words [12]: had no effect on GH4C1 growth
- Ka for human CBG [19]: 5.2e+07 M⁻¹
- CA-PS-Pool I Ka ([11]; 3H-labeled steroid, 34° C.): 1.41e+09 M⁻¹
- CA-PS-Pool I Ka ([11]; 3H-labeled steroid, 34° C.; listed as Cortisol): 1.41e+09 M⁻¹
- Kd ([11]; 3H-labeled steroid, 34° C.; read-out: CA-PS-Pool I Kd): 0.00071 µM

Compound: CC(=O)N(O)CCCCCNC(=O)CCC(=O)N(O)CCCCCNC(=O)CCC(=O)N(O)CCCCCN [deferoxamine, deferoxamine mesylate]
- growth induced by chelator ([1]; CAPM without deferoxamine plus […] Fe (III), 0.5 μM chelator): 3.5 CPD

Compound: CC(=O)[C@H]1CC[C@H]2[C@@H]3CCC4=CC(=O)CC[C@]4(C)[C@H]3CC[C@]12C [progesterone, Progesterone]
- growth effect of steroid hormone, result in words [2]: inactive
- Kd [20]: 0.00329 µM
- ^3H-progesterone concentration at one-half saturation [21]: 0.5 to 1 nM
- labeled progesterone concentration saturating specific binding [21]: ≥ 5 nM
- Kd ([21]; read-out: Kd of ^3H-progesterone binding, Scatchard analysis, whole cells): 0.00102 µM
- concentration causing significant (p<0.05) growth [6]: ≥ 100 nM
- CA-PS-Pool II Ka [7]: 140000 M⁻¹
- Kd [7]: 6.9 µM
- CA-PS-Pool II Ka [9]: 117000 M⁻¹
- Kd [9]: 7.89 µM
- growth effect of steroid hormone, result in words [10]: completely ineffective
- growth effect of steroid hormone, result in words [12]: had no effect on GH4C1 growth
- CA-PS-Pool I Ka ([11]; 3H-labeled steroid, 34° C.): 5.9e+08 M⁻¹
- Kd [11, 25]: 0.0017 µM

Compound: CC/C(=C(\c1ccccc1)c1ccc(OCCN(C)C)cc1)c1ccccc1 [tamoxifen, Tamoxifen Citrate]
- estrogen reversal of the tamoxifen inhibition ([10]; 1.0×10^−7 M tamoxifen, serum-free defined medium): estrogens completely reverse the effect
- cytotoxicity ([10]; concentrations above 1.0×10^−7 M, serum-free DDM-2MF): Higher concentrations were cytotoxic
- concentration that completely inhibited (arrested) growth ([10]; serum-free DDM-2MF without any source of estrogens): 100 nM

Compound: EGF: epidermal growth factor from mouse submaxillary gland (NSYPGCPSSYDGYCLNGGVCMHIESLDSYTCNCVIGYSGDRCQTRDLRWWELR; not fully specified; Epidermal growth factor; UniProt P01132 977-1029, looked up)
- reversal of the CDE-serum inhibition (substitute for E2) [22]: did not reverse the effects of the serum-borne inhibitor

Compound: IGF-I: insulin-like growth factor I
- reversal of the CDE-serum inhibition (substitute for E2) [22]: did not reverse the serum inhibition

Compound: IGF-II: insulin-like growth factor II
- reversal of the CDE-serum inhibition (substitute for E2) [22]: did not reverse the inhibitory effects of 10 to 50% (v/v) CDE serum

Compound: TGFα: transforming growth factor α, EGF analogue
- reversal of the CDE-serum inhibition (substitute for E2) [22]: did not reverse the effects of the serum-borne inhibitor

Compound: TGFβ1: transforming growth factor β1
- cell numbers per dish with TGFβ1 (350,000 without) ([6]; D-MEM/F-12 with […] (v/v) CDE-horse serum): 100,000 per dish
- decrease in growth rate ([6]; […] (v/v) CDE-horse serum): ≤ 25%
- inhibition of growth ([6]; […] (v/v) CDE-horse serum): 1.5 CPD
- estrogen reversal of the inhibition ([6]; […] (v/v) CDE-horse serum ± E2): no estrogen reversal of the TGFβ1 inhibition
- substitution for the estrogen reversible inhibitor [23]: did not substitute for the estrogen reversible inhibitor(s) in CDE serum
- estrogen reversal of the inhibition ([24]; […] (v/v) CDE-horse serum ± E2): no TGFβ1 related estrogenic effect
- cell numbers per dish with TGFβ1 (350,000 without) ([24]; […] (v/v) CDE-horse serum, 50 ng/mL): 200,000 per dish

Compound: insulin: bovine insulin
- reversal of the CDE-serum inhibition (substitute for E2) [22]: did not reverse the inhibition caused by 50% (v/v) CDE serum
